From patent US9273057B2 (Bristol-Myers Squibb Company, priority 2012, dated 2016)
Structures can show the parent of a compound that is named as a salt.

Target: CK2A1 (CK2α/β) (Homo sapiens, UniProt P68400)
Test: CK2 kinase assay, CK2A1 (CK2α/β)
Format: biochemical
Conditions: Table A; read-out: CK2A1 (CK2α/β) (IC50)

CK2A1 (CK2α/β), sequence (P68400 whole entry, species assumed): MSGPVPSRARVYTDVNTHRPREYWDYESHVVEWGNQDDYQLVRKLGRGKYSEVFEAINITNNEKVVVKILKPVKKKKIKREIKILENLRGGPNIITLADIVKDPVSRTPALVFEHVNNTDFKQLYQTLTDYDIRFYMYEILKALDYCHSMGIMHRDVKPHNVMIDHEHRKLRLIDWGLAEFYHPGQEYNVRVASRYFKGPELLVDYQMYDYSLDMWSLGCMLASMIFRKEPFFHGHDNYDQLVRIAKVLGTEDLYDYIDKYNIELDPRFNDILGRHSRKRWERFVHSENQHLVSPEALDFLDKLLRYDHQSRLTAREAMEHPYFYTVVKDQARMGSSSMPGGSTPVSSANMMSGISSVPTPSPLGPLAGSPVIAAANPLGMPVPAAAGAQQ
CK2A1 (CK2α/β), sequence (P67870 whole entry partner, species assumed): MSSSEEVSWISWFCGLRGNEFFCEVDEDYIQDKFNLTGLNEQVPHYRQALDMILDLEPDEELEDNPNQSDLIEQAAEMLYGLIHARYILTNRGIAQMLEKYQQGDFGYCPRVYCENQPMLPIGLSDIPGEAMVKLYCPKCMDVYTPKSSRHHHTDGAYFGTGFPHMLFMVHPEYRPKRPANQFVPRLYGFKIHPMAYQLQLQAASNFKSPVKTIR

SMILES | IC50 [nM]
COC(=O)N[C@@H]1CCN(c2cc(C#N)cc(Nc3nc(NC4CC4)c4ncc(C#N)n4n3)c2Cl)C[C@H]1OC(=O)CN1CCOCC1 [Example 196, (3R,4R)-1-(2-chloro-5-cyano-3-((7-cyano-4-(cyclopropylamino)imidazo[2,1-f][1,2,4]triazin-2-yl)amino)phenyl)-4-((methoxycarbonyl)amino)-3-piperidinyl 4-morpholinylacetate] | 0.8
N#Cc1cc(Nc2nc(NC3CC3)c3ncc(C#N)n3n2)c(Cl)c(N2CCN3CCOC[C@@H]3C2)c1 [Example 309, (S)-2-((2-chloro-5-cyano-3-(hexahydropyrazino[2,1-c][1,4]oxazin-8(1H)-yl)phenyl)amino)-4-(cyclopropylamino)imidazo[2,1-f][1,2,4]triazine-7-carbonitrile] | 1.31
N#Cc1cc(CN2CCN(C3COC3)CC2)c(Cl)c(Nc2nc(NC3CC3)c3ncc(C#N)n3n2)c1 [Example 403, 2-((2-chloro-5-cyano-3-((4-(oxetan-3-yl)piperazin-1-yl)methyl)phenyl)amino)-4-(cyclopropylamino)imidazo[2,1-f][1,2,4]triazine-7-carbonitrile HCl salt] | 0.69
COC(=O)N[C@H]1CCN(c2cc(C#N)cc(Nc3nc(NC4CC4)c4ncc(C#N)n4n3)c2Cl)C[C@@H]1OC(=O)/C=C/C(=O)O [Example 198, (2E)-4-(((3S,4S)-1-(2-chloro-5-cyano-3-((7-cyano-4-(cyclopropylamino)imidazo[2,1-f][1,2,4]triazin-2-yl)amino)phenyl)-4-((methoxycarbonyl)amino)-3-piperidinyl)oxy)-4-oxo-2-butenoic acid] | 0.65
N#Cc1cc(Nc2nc(NC3CC3)c3ncc(C#N)n3n2)c(Cl)c(N2CCN(C(=O)C(F)F)CC2)c1 [Example 75, 2-(2-chloro-5-cyano-3-(4-(2,2-difluoroacetyl)piperazin-1-yl)phenylamino)-4-(cyclopropylamino) imidazo[1,2-f][1,2,4] triazine-7-carbonitrile] | 0.41
N#Cc1cc(Nc2nc(NC3CC3)c3ncc(C#N)n3n2)c(Cl)cc1CCCN1CCOCC1 [Example 567, 2-((2-chloro-5-cyano-4-(3-morpholinopropyl)phenyl)amino)-4-(cyclopropylamino)imidazo[2,1-f][1,2,4]triazine-7-carbonitrile] | 4.06
N#Cc1cc(Nc2nc(NC3CC3)c3ncc(C#N)n3n2)c(Cl)c(N2CCC(N[C@H]3CC[C@H](O)C3)CC2)c1 (racemic) [Example 120, (+/−) 2-((2-chloro-5-cyano-3-(4-(((1S,3S)-3-hydroxycyclopentyl)amino)-1-piperidinyl)phenyl)amino)-4-(cyclopropylamino)imidazo [2,1-f][1,2,4]triazine-7-carbonitrile] | 0.69
CN1CCN(c2cc(C#N)cc(Nc3nc(NC4CC4)c4ncc(C#N)n4n3)c2)C(=O)C1 [Example 629, 2-((3-cyano-5-(4-methyl-2-oxopiperazin-1-yl)phenyl)amino)-4-(cyclopropylamino)imidazo[2,1-f][1,2,4]triazine-7-carbonitrile] | 6
CN1CCN(CCCc2cc(C#N)cc(Nc3nc(NC4CC4)c4ncc(C#N)n4n3)c2Cl)CC1 [Example 577, 2-((2-chloro-5-cyano-3-(3-(4-methylpiperazin-1-yl)propyl)phenyl)amino)-4-(cyclopropylamino)imidazo[2,1-f][1,2,4]triazine-7-carbonitrile] | 0.72
CC(CC(C)c1cc(Cl)c(Nc2nc(NC3CC3)c3ncc(C#N)n3n2)cc1C#N)NCCC(F)(F)F (single isomer, unassigned) [Example 735, 2-[(2-chloro-5-cyano-4-{4-[(3,3,3-trifluoropropyl)amino]pentan-2-yl}phenyl)amino]-4-(cyclopropylamino)imidazo [2,1-f][1,2,4]triazine-7-carbonitril] | 4.37
N#Cc1cc(Nc2nc(NC3CC3)c3ncc(C#N)n3n2)c(Cl)c(N2CCN(C3CN(C(=O)C4CCC(O)CC4)C3)CC2)c1 (stereo not drawn) [Example 509, 2-[(2-chloro-5-cyano-3-{4-[1-(4-hydroxycyclohexane-carbonyl)azetidin-3-yl]piperazin-1-yl}phenyl)amino]-4-(cyclopropylamino)imidazo[2,1-f][1,2,4]triazine-7-carbonitrile] | 5.11
CCNc1nc(Nc2cc(C#N)cc(N3CC[C@@H](NC(=O)OC)[C@H](OC(=O)C[C@H](N)C(=O)OC(C)(C)C)C3)c2Cl)nn2c(C#N)cnc12 [Example 815, (S)-1-tert-butyl 4-((3R,4R)-1-(2-chloro-5-cyano-3-((7-cyano-4-(ethylamino)imidazo[2,1-f][1,2,4]triazin-2-yl)amino)phenyl)-4-((methoxycarbonyl)amino)piperidin-3-yl) 2-aminosuccinate hydrochloride] | 18.7
CC1(N2CCN(c3cc(C#N)cc(Nc4nc(NC5CC5)c5ncc(C#N)n5n4)c3Cl)CC2)COC1 [Example 311, 2-((2-chloro-5-cyano-3-(4-(3-methyl-3-oxetanyl)-1-piperazinyl)phenyl)amino)-4-(cyclopropylamino)imidazo[2,1-f][1,2,4]triazine-7-carbonitrile] | 0.96
CC(C)(O)C(=O)N1CC(N2CCN(c3cc(C#N)cc(Nc4nc(NC5CC5)c5ncc(C#N)n5n4)c3Cl)CC2)C1 [Example 484, 2-[(2-chloro-5-cyano-3-{4-[1-(2-hydroxy-2-methylpropanoyl)azetidin-3-yl]piperazin-1-yl}phenyl)amino]-4-(cyclopropylamino)imidazo[2,1-f][1,2,4]triazine-7-carbonitrile] | 0.81
COC[C@H](NC[C@H]1CN(c2cc(C#N)cc(Nc3nc(NC4CC4)c4ncc(C#N)n4n3)c2Cl)CCO1)C1CC1 [Example 704, 2-({2-chloro-5-cyano-3-[(2S)-2-({[(1R)-1-cyclopropyl-2-methoxyethyl]amino}methyl)morpholin-4-yl]phenyl}amino)-4-(cyclopropylamino)imidazo[2,1-f][1,2,4]triazine-7-carbonitrile] | 1.4
N#Cc1cc(Nc2nc(NC3CC3)c3ncc(C#N)n3n2)c(Cl)c([C@H]2CCC[C@@H](N3CC(F)C3)C2)c1 [Example 726, 2-({2-chloro-5-cyano-3-[(1S,3R)-3-(3-fluoroazetidin-1-yl)cyclohexyl]phenyl}amino)-4-(cyclopropylamino)imidazo [2,1-f][1,2,4]triazine-7-carbonitrile] | 2.34
COC(=O)N1CC2CN(c3cc(C#N)cc(Nc4nc(NC5CC5)c5ncc(C#N)n5n4)c3Cl)CC2C1 (stereo not drawn) [Example 462, methyl 5-(2-chloro-5-cyano-3-((7-cyano-4-(cyclopropylamino)imidazo[2,1-f][1,2,4]triazin-2-yl)amino)phenyl)hexahydro-pyrrolo[3,4-c]pyrrole-2(1H)-carboxylate] | 3
CCNc1nc(Nc2cc(C#N)cc(N3CC[C@@H]4[C@@H](C3)OC(=O)N4C3CCOCC3)c2Cl)nn2c(C#N)cnc12 [Example 845] | 0.92
CCNc1nc(Nc2cc(C#N)cc(N3CC[C@@H](NC(=O)OC)[C@H](OC(=O)C(C)OP(=O)(O)O)C3)c2Cl)nn2c(C#N)cnc12 (mixture of isomers) [Example 339, (+/−)-(3R,4R)-1-(2-chloro-5-cyano-3-((7-cyano-4-(ethylamino)imidazo[2,1-f][1,2,4]triazin-2-yl)amino)phenyl)-4-((methoxycarbonyl)amino)piperidin-3-yl 2-(phosphonooxy)propanoate] | 0.47
CC(C)(O)CC1(N2CCN(c3cc(C#N)cc(Nc4nc(NC5CC5)c5ncc(C#N)n5n4)c3Cl)CC2)COC1 [Example 536, 2-((2-chloro-5-cyano-3-(4-(3-(2-hydroxy-2-methylpropyl)oxetan-3-yl)piperazin-1-yl)phenyl)amino)-4-(cyclopropylamino)imidazo[2,1-f][1,2,4]triazine-7-carbonitrile] | 1.55
CN1CC(NC2CCN(c3cc(C#N)cc(Nc4nc(NC5CC5)c5ncc(C#N)n5n4)c3Cl)CC2)CC1=O (racemic) [Example 116, (+/−) 2-((2-chloro-5-cyano-3-(4-((1-methyl-5-oxo-3-pyrrolidinyl)amino)-1-piperidinyl)phenyl)amino)-4-(cyclopropylamino)imidazo [2,1-f][1,2,4]triazine-7-carbonitrile] | 0.68
N#Cc1cc(Nc2nc(NC3CC3)c3ncc(C#N)n3n2)c(Cl)c(N2CCN(CCO)CC2)c1 [Example 590, 2-({2-chloro-5-cyano-3-[4-(2-hydroxyethyl)piperazin-1-yl]phenyl}amino)-4-(cyclopropylamino)imidazo [2,1-f][1,2,4]triazine-7-carbonitrile] | 1.83
CC(C)(C)N1CCN(Cc2cc(C#N)cc(Nc3nc(NC4CC4)c4ncc(C#N)n4n3)c2Cl)CC1 [Example 472, 2-((3-[(4-tert-butylpiperazin-1-yl)methyl]-2-chloro-5-cyanophenyl}amino)-4-(cyclopropylamino)imidazo[2,1-f][1,2,4]triazine-7-carbonitrile] | 1.7
CO[C@@H]1CN(c2cc(C#N)cc(Nc3nc(NC4CC4)c4ncc(C#N)n4n3)c2Cl)C[C@@H]1N [Example 30, 2-((3-((3S,4R)-3-amino-4-methoxy-1-pyrrolidinyl)-2-chloro-5-cyanophenyl)amino)-4-(cyclopropylamino)imidazo [2,1-f][1,2,4]triazine-7-carbonitrile] | 0.92
COCCN1CC(N2CCN(c3cc(C#N)cc(Nc4nc(NC5CC5)c5ncc(C#N)n5n4)c3Cl)CC2)C1 [Example 61, 2-((2-chloro-5-cyano-3-(4-(1-(2-methoxyethyl)-3-azetidinyl)-1-piperazinyl)phenyl)amino)-4-(cyclopropylamino) imidazo[2,1-f][1,2,4] triazine-7-carbonitrile] | 0.96
CN(C)C(=O)C1CN(c2cc(C#N)cc(Nc3nc(NC4CC4)c4ncc(C#N)n4n3)c2Cl)CCN1C1COC1 (stereo not drawn) [Example 564, 4-(2-chloro-5-cyano-3-((7-cyano-4-(cyclopropylamino)imidazo[2,1-f][1,2,4]triazin-2-yl)amino)phenyl)-N,N-dimethyl-1-(oxetan-3-yl)piperazine-2-carboxamide] | 4.86
N#Cc1cc(Nc2nc(NC3CC3)c3ncc(C#N)n3n2)c(F)c(N2CCN(C3CNC3)CC2)c1 [Example 550, 2-((3-(4-(azetidin-3-yl)piperazin-1-yl)-5-cyano-2-fluorophenyl)amino)-4-(cyclopropylamino)imidazo[2,1-f][1,2,4]triazine-7-carbonitrile] | 0.83
